Each block holds one compound with its values, some of them ahead of it.
Tests used:
HDAC 1-3 = HDAC 1-3 assay (BioVision kit, HeLa nuclear extract); conditions: for Percent inhibition HDAC 1-3: Compound tested at 1 uM
Method: For HDAC 1-3 assays, kits from BioVision Incorporated (https://www.biovision.com/) were used and their recommended protocols followed. […] Each compound was dissolved in DMSO to generate a 100 μM stock solution, then diluted using HPLC-grade water to prepare 10 μM, 2 μM, and 1 μM solutions. These solutions were used for the assays. […] Assays utilized a BioTek Synergy H1 microplate reader and black Nunc MicroWell 96-well optical-bottom plates with polymer base.
HDAC 1-3: 10 μL of each diluted compound (10 μM) and 40 μL of HPLC-grade water were mixed and added into a well on the plate. […] Then, 50 μL of the reaction mixture was added to each well and the solution was mixed thoroughly. The reaction mixture consisted of 500 μL of 10×HDAC Assay buffer, 100 μL of HeLa nuclear extract, 250 μL of HDAC substrate, and 1.65 mL of HPLC-grade water. The plate was then warmed in an incubator at 37° C. with a rocker platform and was incubated for 30 min. After the incubation, 10 μL of Lysine Developer solution was added to each well. The plate was kept in the incubator for an additional 30 min. Afterwards, the plate was analyzed using a BioTek Synergy H1 microplate reader, taking two independent readings per well that were subsequently averaged.

[1] = system: HEK293 cells that express an HTT exon containing 17 glutamine repeats (HTT17Q-mCherry); experiment: Huntington's Disease (HD) model: protein aggregates (puncta) per cell in HEK293H cells transfected with HTT17Q-mCherry; conditions: for Effect on aggregate suppression compared to the MAL1-271 positive control: Example 1, FIG. 2, 10 μM compound; for Activity in cell based HD assay (active analogs of Hsp70 agonist): summary of Example 1
Method: Cells were stained for confocal microscope imaging with 4′,6-diamidino-2-phenylindole (DAPI), a fluorescent dye with high affinity to adenine-thymine rich DNA regions. A bright spot detection tool was used to identify and quantify the number of protein aggregates (“dots”) per cell.
Biological Assays: For HD assays, HEK293H cells were grown in DMEM (Sigma-Aldrich, Saint Louis, MO) supplemented with 10% fetal bovine serum (GE Healthcare Hyclone) and 1% penicillin/streptomycin (Thermo Fisher Scientific, Waltham, MA) at 37° C. and at a 5% CO2 atmosphere. Cells were seeded at 250,000 cells/plate in Poly-D-Lysine Coated 35 mm MatTek dishes (P35GC-1.5-10-C, MatTek Corporation, Ashland, MA). After 24 h growth, a total of 4 μg of mCherry tagged-polyglutamine-expanded (17-polyQ-expanded) huntingtin (HTT) was introduced using Lipofectamine 2000 (Invitrogen, Thermo Fisher Scientific) according to the manufacturer's instructions. […] The following day, cells were treated with vehicle (DMSO) as control or with 10 μM of the examined compounds for 6 h. The cells were then washed with PBS and fixed in 4% formaldehyde for 15 min at room temperature. Finally, cells were stained with DAPI (1:250 in PBS) for 4 h and maintained in PBS for confocal microscope imaging.
Complete volumes of cells were acquired at 0.5-μm steps, and volumes were reconstructed and analyzed using Nikon's NIS-Elements software (Nikon Instrument, Melville, NY). Bright spot detection tool was used to identify and quantify the number of protein aggregates (“dots”) per cell. A non-parametric Kruskal-Wallis test analysis was performed using Prism software (GraphPad, La Jolla, CA). Statistically significant differences between control (DMSO) and compound treated samples are indicated by asterisks in figure. To obtain representative images from this experiment, maximum intensity projections of 0.5-μm steps though the entire cell were generated using Nikon's NIS-Elements software.
Cells were stained for confocal microscope imaging with 4′,6-diamidino-2-phenylindole (DAPI) and bright spot detection tool was used to identify and quantify the number of protein aggregates (“dots”) per cell.

HDAC 8 = biological target: T1, HDAC 8 (Homo sapiens, UniProt Q9BY41); experiment: HDAC 8 assay (BPS Bioscience kit); conditions: for Percent inhibition HDAC 8: footnotes a,c: tested at 1 uM, 100 nM, average of 2 independent measurements
T1 sequence (Q9BY41 1-377): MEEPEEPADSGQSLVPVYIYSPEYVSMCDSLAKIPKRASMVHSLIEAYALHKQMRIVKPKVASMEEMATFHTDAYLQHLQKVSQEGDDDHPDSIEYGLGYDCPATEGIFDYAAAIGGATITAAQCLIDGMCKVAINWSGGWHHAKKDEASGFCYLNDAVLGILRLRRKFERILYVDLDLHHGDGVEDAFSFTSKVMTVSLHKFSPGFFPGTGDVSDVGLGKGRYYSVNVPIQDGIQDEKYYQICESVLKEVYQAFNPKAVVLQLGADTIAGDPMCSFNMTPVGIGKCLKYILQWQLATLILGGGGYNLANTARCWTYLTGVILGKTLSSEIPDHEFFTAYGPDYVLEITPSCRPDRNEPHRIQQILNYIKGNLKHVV
Method: (§1) For HDAC 4-8 assays, kits from BPS Bioscience (https://bpsbioscience.com/) were used and their recommended protocols followed. […] Each compound was dissolved in DMSO to generate a 100 μM stock solution, then diluted using HPLC-grade water to prepare 10 μM, 2 μM, and 1 μM solutions. These solutions were used for the assays. […] Assays utilized a BioTek Synergy H1 microplate reader and black Nunc MicroWell 96-well optical-bottom plates with polymer base.
(§2) HDAC 4 (and, by analogy, HDAC 5, 6, 7, and 8): 40 μL of the parent solution was added to each well on the plate. The parent solution was prepared from a fluorogenic HDAC substrate, a 1 mg/mL solution of bovine serum albumin (BSA) in water, and HDAC assay buffer. 5 μL of the inhibitor buffer (10% DMSO in water) was added to the wells designated as “Blank” and “Positive Control” (no inhibitor). 5 μL of the test compound was added to each well designated as “Test Inhibitor”. Different concentrations of TSA (for a standard curve) was added to each well designated as “Standard.” 5 μL of HDAC assay buffer was added to the “Blank” wells. Then, 5 μL of HDAC 4 human recombinant enzyme was added to the wells designated as “Positive Control”, “Test Inhibitor”, and “Standard.” The plate was then warmed in an incubator at 37° C. with a rocker platform for 30 min After the incubation, 50 μL of 2×HDAC Developer solution was added to each well. The plate was returned to the incubator and was shaken on the rocker for an additional 15 min. at room temperature. Afterwards, the plate was analyzed using a BioTek Synergy H1 microplate reader, taking two independent readings per well that were subsequently averaged.

[2] = biological target: HDAC 4 human recombinant enzyme (Homo sapiens, UniProt P56524); experiment: HDAC 4 assay (BPS Bioscience kit); conditions: Compound tested at 1 uM
Method: as §1
(§3) HDAC 4 (and, by analogy, HDAC 5, 6, 7, and 8): 40 μL of the parent solution was added to each well on the plate. The parent solution was prepared from a fluorogenic HDAC substrate, a 1 mg/mL solution of bovine serum albumin (BSA) in water, and HDAC assay buffer. 5 μL of the inhibitor buffer (10% DMSO in water) was added to the wells designated as “Blank” and “Positive Control” (no inhibitor). 5 μL of the test compound was added to each well designated as “Test Inhibitor”. Different concentrations of TSA (for a standard curve) was added to each well designated as “Standard.” 5 μL of HDAC assay buffer was added to the “Blank” wells. […] Afterwards, the plate was analyzed using a BioTek Synergy H1 microplate reader, taking two independent readings per well that were subsequently averaged.

HDAC 7 = biological target: T2, HDAC 7 (Homo sapiens, UniProt Q8WUI4); experiment: HDAC 7 assay (BPS Bioscience kit)
T2 sequence (Q8WUI4 1-952): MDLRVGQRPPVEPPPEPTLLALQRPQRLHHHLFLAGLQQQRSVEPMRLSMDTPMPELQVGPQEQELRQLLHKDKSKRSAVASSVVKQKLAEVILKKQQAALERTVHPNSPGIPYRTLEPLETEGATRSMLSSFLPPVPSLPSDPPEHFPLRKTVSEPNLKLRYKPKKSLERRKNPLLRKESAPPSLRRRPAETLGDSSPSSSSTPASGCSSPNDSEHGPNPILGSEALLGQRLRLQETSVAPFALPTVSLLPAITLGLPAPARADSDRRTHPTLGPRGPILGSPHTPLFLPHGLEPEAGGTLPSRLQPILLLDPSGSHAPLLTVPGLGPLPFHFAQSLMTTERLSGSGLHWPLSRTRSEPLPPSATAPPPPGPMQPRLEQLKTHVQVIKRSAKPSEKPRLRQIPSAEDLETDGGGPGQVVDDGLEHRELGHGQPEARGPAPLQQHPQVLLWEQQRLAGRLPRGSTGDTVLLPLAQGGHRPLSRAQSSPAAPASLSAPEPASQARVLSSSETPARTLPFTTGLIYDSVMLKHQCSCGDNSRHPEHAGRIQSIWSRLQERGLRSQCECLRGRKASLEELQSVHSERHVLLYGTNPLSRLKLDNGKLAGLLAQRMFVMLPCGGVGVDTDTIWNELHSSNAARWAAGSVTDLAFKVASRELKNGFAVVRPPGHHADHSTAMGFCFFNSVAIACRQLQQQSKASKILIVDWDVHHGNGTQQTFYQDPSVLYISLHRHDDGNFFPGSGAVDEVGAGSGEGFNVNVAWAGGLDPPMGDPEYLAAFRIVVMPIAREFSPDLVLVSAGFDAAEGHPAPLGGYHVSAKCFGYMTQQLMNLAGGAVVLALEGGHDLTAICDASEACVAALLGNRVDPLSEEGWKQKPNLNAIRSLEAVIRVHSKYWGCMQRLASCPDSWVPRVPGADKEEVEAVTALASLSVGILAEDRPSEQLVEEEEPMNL
Method: as §1, §3

HDAC 5 = HDAC 5 (Homo sapiens, UniProt Q9UQL6); experiment: HDAC 5 assay (BPS Bioscience kit)
Method: as §1, §3

HDAC 6 = biological target: T3, HDAC 6 (Homo sapiens, UniProt Q9UBN7); experiment: HDAC 6 assay (BPS Bioscience kit); conditions: for Percent inhibition HDAC 6: footnotes b,c: tested at 200 nM, 100 nM, variable, average of 2 independent measurements
T3 sequence (Q9UBN7 1-1215): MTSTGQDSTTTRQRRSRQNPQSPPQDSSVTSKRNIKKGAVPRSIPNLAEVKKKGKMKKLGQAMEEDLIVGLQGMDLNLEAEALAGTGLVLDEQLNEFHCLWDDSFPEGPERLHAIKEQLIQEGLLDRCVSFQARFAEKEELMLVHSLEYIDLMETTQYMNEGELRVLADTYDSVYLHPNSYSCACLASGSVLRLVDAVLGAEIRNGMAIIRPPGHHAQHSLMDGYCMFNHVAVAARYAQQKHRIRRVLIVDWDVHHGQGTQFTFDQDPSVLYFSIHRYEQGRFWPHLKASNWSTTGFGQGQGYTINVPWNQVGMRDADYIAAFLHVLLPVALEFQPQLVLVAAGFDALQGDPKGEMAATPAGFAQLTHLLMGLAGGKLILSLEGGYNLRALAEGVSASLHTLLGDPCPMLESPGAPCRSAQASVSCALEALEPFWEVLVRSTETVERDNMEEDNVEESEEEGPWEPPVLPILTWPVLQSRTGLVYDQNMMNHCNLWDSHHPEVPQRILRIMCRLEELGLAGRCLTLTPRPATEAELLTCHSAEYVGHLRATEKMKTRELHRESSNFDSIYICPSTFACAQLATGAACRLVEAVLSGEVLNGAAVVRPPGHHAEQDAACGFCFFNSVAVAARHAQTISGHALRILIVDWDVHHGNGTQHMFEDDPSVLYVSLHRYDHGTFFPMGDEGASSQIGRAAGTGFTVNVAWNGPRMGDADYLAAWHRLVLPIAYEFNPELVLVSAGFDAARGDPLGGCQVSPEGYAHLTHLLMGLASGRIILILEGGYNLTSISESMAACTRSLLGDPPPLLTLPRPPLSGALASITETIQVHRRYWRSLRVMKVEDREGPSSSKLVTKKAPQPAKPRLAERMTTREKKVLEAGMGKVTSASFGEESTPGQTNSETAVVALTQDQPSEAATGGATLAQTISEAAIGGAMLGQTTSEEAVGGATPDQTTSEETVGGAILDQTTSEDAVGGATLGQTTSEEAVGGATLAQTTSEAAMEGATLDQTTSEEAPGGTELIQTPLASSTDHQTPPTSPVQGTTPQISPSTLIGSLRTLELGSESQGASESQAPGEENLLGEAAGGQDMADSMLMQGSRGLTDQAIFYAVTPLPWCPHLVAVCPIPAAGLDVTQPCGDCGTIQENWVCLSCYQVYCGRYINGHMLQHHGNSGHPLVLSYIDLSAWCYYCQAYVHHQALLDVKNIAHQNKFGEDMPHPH
Method: as §1, §2

HDAC 4 human recombinant enzyme, sequence (P56524 whole entry): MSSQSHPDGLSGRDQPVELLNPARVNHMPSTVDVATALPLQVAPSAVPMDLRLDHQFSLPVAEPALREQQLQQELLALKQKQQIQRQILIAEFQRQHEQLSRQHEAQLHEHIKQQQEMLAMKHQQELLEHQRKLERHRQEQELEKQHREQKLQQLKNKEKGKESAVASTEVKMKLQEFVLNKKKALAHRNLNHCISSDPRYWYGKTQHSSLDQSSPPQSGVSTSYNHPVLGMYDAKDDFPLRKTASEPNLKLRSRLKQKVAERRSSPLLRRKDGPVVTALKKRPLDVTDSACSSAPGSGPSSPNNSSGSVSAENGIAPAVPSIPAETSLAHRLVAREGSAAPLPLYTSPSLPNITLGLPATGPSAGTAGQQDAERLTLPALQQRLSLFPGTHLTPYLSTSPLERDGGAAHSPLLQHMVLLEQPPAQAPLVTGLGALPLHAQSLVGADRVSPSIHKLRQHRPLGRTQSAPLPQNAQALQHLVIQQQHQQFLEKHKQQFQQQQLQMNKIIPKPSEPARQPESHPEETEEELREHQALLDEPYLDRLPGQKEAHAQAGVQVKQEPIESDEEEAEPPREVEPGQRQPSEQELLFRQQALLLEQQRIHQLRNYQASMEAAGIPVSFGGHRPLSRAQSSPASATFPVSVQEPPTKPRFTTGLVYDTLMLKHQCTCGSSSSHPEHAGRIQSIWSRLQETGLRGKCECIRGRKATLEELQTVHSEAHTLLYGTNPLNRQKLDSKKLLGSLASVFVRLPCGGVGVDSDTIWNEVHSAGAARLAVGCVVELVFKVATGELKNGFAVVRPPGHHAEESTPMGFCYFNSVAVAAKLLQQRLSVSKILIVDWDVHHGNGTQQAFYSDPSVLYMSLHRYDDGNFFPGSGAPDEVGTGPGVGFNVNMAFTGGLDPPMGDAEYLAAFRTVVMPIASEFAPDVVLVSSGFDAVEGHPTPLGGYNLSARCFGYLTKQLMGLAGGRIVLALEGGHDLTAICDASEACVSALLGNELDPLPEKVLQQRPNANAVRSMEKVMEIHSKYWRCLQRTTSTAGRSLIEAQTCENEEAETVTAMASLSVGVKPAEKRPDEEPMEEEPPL
HDAC 5, sequence (Q9UQL6 whole entry): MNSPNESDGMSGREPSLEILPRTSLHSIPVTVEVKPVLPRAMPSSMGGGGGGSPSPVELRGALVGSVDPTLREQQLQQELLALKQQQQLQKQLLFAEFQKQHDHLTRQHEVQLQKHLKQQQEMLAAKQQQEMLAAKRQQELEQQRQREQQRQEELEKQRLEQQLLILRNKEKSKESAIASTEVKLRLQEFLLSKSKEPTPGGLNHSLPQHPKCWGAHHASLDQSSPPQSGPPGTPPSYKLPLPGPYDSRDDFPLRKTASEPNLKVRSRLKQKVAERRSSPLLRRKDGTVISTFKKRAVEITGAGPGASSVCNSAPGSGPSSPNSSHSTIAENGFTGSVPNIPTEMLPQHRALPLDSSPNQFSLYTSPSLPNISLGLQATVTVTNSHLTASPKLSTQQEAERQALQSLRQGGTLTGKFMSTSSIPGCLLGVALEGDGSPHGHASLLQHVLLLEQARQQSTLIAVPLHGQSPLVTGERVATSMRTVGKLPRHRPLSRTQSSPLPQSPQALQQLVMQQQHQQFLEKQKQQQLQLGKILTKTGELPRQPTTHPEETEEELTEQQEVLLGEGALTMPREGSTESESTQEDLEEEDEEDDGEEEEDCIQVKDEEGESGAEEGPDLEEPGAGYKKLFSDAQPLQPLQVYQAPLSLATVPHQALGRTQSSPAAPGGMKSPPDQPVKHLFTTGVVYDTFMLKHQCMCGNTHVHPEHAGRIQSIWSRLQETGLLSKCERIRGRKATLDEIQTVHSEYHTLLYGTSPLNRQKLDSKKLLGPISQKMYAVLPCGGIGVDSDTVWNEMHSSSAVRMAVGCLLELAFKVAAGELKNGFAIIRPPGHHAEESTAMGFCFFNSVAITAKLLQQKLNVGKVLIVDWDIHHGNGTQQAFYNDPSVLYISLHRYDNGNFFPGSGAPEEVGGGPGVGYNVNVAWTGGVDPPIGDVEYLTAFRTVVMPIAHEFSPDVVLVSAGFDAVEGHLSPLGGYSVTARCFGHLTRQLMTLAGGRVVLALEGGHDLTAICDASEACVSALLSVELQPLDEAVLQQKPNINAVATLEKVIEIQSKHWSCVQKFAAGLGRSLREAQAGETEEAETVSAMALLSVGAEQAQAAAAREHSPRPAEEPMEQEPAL

- Percent inhibition HDAC 8 (HDAC 8): 60%^e
- Percent inhibition HDAC 4 [2]: NIA
- inhibition at 0.1 µM (HDAC 7; read-out: Percent inhibition HDAC 7): 1%
- Percent inhibition HDAC 5 (HDAC 5; Compound tested at 200 nM): NIA
- Percent inhibition HDAC 6 (HDAC 6): NIA
Structure (SMILES): COC(=O)CCCN1C=C(C(=O)O)C(c2ccc(Cl)cc2Cl)NS1(=O)=O (stereo not drawn) [Compound 10g, 3-(2,4-Dichlorophenyl)-6-(4-methoxy-4-oxobutyl)-3,6-dihydro-2H-1,2,6-thiadiazine-4-carboxylic acid 1,1-dioxide]
- Percent inhibition HDAC 1-3 (HDAC 1-3): NIA
- Effect on aggregate suppression compared to the MAL1-271 positive control ([1]; 6 h): equally effective
- Activity in cell based HD assay (active analogs of Hsp70 agonist) [1]: active

- Percent inhibition HDAC 8 (HDAC 8): 37%^e
- Percent inhibition HDAC 4 [2]: NIA
- Percent inhibition HDAC 7 (HDAC 7; Compound tested at 100 nM): NIA
- inhibition at 0.2 µM (HDAC 5; read-out: Percent inhibition HDAC 5): 9%
- Percent inhibition HDAC 6 (HDAC 6): 40%^d
Structure (SMILES): CCOC(=O)C1=CNS(=O)(=O)N(Cc2ccc(C(=O)O)cc2)C1c1ccc(Cl)cc1Cl (stereo not drawn) [Compound 10i, 4-((3-(2,4-Dichlorophenyl)-4-(ethoxycarbonyl)-1,1-dioxido-3,6-dihydro-2H-1,2,6-thiadiazin-2-yl)methyl)benzoic acid]
- Percent inhibition HDAC 1-3 (HDAC 1-3): NIA
- Effect on aggregate suppression compared to the MAL1-271 positive control ([1]; 6 h): equally effective
- Activity in cell based HD assay (active analogs of Hsp70 agonist) [1]: active

Structure (SMILES): CCOC(=O)C1=CN(CCCC(=O)NO)S(=O)(=O)NC1c1ccc(Cl)cc1Cl (stereo not drawn) [Compound 12g, Ethyl 3-(2,4-dichlorophenyl)-6-(4-(hydroxyamino)-4-oxobutyl)-3,6-dihydro-2H-1,2,6-thiadiazine-4-carboxylate 1,1-dioxide]
- Percent inhibition HDAC 1-3 (HDAC 1-3): 1%

Structure (SMILES): CCOC(=O)C1=CN(Cc2ccc(C(=O)NO)cc2)S(=O)(=O)NC1c1ccc(Cl)cc1Cl (stereo not drawn) [Compound 12h, Ethyl 3-(2,4-dichlorophenyl)-6-(4-(hydroxycarbamoyl)benzyl)-3,6-dihydro-2H-1,2,6-thiadiazine-4-carboxylate 1,1-dioxide]
- Percent inhibition HDAC 1-3 (HDAC 1-3): 22%

Structure (SMILES): O=C(CCCN1C=C(C(=O)OCc2ccccc2)C(c2ccc(Cl)cc2Cl)NS1(=O)=O)OCCN1CCOCC1 (stereo not drawn) [Compound 959_74, Benzyl 3-(2,4-dichlorophenyl)-6-(4-(2-morpholinoethoxy)-4-oxobutyl)-3,6-dihydro-2H-1,2,6-thiadiazine-4-carboxylate 1,1-dioxide]
- Effectiveness compared to MAL1-271 (Less/Similar/More) ([1]; 10 μM, 6 h, blunting formation of toxic aggregates): Similar

Structure (SMILES): O=C(CCCCCCC(=O)Nc1ccccc1)NO [SAHA, Vorinostat]
- inhibition at 0.05 µM (HDAC 8; read-out: Percent Inhibition): 54%
- inhibition at 0.2 µM (HDAC 8; read-out: Percent Inhibition): 67%
- inhibition at 1 µM (HDAC 8; read-out: Percent Inhibition): 70%
- inhibition at 2 µM (HDAC 8; read-out: Percent Inhibition): 86%
- inhibition at 5 µM (HDAC 8; read-out: Percent Inhibition): 96%
- inhibition at 0.001 µM (HDAC 6; read-out: Percent Inhibition): 6%
- inhibition at 0.005 µM (HDAC 6; read-out: Percent Inhibition): 25%
- inhibition at 0.01 µM (HDAC 6; read-out: Percent Inhibition): 47%
- inhibition at 0.5 µM (HDAC 6; read-out: Percent Inhibition): 94%

Structure (SMILES): CC(/C=C/C(=O)NO)=C\[C@@H](C)C(=O)c1ccc(N(C)C)cc1 [TSA, Trichostatin A]
- Percent Inhibition (HDAC 1-3; HDAC 1-3, standard at 0.0025 uM): NIA
- Percent Inhibition (HDAC 1-3; HDAC 1-3, standard at 0.005 uM): NIA
- Percent Inhibition (HDAC 1-3; HDAC 1-3, standard at 0.05 uM): 33%
- Percent Inhibition (HDAC 1-3; HDAC 1-3, standard at 0.1 uM): 49%
- Percent Inhibition (HDAC 1-3; HDAC 1-3, standard at 1 uM): 68%

Source: patent publication US12600705B2, “Heat shock protein modulators and anti-Huntington disease therapeutic agents” (UNIVERSITY OF PITTSBURGH-OF THE COMMONWEALTH SYSTEM OF …, priority 2020, dated 2026)
